Positions count from the first letter of the chain named. Names may count otherwise. One block for each molecule: values may come before it. Peptide text beside a SMILES is read from it.
Columns and labels:
[1] = system: post-infusion PBMC samples
HLA-A*02:01 = HLA-A*02:01 (Homo sapiens, UniProt P04439, D140Y/D185E/D98H/E176V/E277Q/G131W/G231S/I119V/I121R/I166T/I218V/L300P/L318F/N151K/N90K/P208A/P217A/Q86G/Q94H/R138H/R169H/T345S); assay: REVEAL Epitope Discovery System in vitro MHC-peptide binding score; conditions: for A*02:01 In Vitro Score: REVEAL score, positive control peptide set at 100%, greater than 50 = good or high affinity binding; for predicted or actual binding affinity or score for HLA class I: for at least one HLA allele (A*02:01, A*03:01, A*11:01, B*08:01) and/or at least one peptide, in silico or in vitro
Protocol: (§1) Actual binding affinities for certain HLA class I alleles (A*02:01, A*03:01. A*11:01, and B*08:01) were assessed in vitro for exemplary overlapping 9 amino acid peptide sequences within a portion of the 26 amino acid junction region spanning the CD28 and 4-1BB junction. Specifically, assessment was of a series of overlapping 9-mer peptides derived from the sequence […] (set forth in SEQ ID NO: 7), which contains a portion of the CD28 transmembrane domain and 4-1BB costimulatory domain spanning the junction between the domains (bond joining the two amino acids noted in underline). In addition, a series of overlapping 9-mer peptides of each of a number of different variants of this portion also were assessed, each variant containing a mutation or mutations in this region as described in Example 2.
(§2) The various 9-mer overlapping peptides were synthesized and their purity tested by MALDI-TOF Mass Spectrometry. The synthetic peptides were then incubated with recombinant MHC molecules to assess binding properties using the REVEAL Epitope Discovery System, which is a high-throughput binding assay that measures the degree to which each peptide is able to stabilize a ternary MHC-peptide complex (ProImmune, Oxford, United Kingdom). Each peptide was separately tested for this ability with respect to each of the HLA class I alleles, normalized to the degree observed for a positive control (known T cell epitope for the relevant allele). The results are reported as a score, in which the binding was normalized to the positive control peptide set at 100%.

HLA-A*03:01 = HLA-A*03:01 (Homo sapiens, UniProt P04439); assay: as above; conditions: positive control peptide set at 100%, greater than 50 = good or high affinity binding
Protocol: as §1, §2

HLA-B*08:01 = HLA-B*08:01 (Homo sapiens, UniProt P01889, A93T/A95T/D138N/E176V/E187T/K202T/Q94N/R180D/S35A/V36M/Y33D/Y91F); assay: as above; set-up: key: % binding, normalized to positive control peptide set at 100%; conditions: binding normalized to positive control peptide set at 100%, greater than 50 considered good or high affinity binding
Protocol: as §1, §2

HLA-A*11:01 = HLA-A*11:01 (Homo sapiens, UniProt P04439, A114D/D185E/E176A/F33Y/L180Q/S129P/T187R); assay: as above; set-up: key: % binding, normalized to positive control peptide set at 100%; conditions: binding normalized to positive control peptide set at 100%, greater than 50 considered good or high affinity binding
Protocol: as §1, §2

[2] = system: intracellular IL-2 and IFN-γ; assay: Intracellular cytokine expression after co-culture with K562-CD19; type: cell-based, human; conditions: versus unmodified CAR; for percentage of cells with IFN-γ cytokine expression: CD8+/CAR+ T cells after antigen stimulation; for percentage of cells with intracellular expression of IL-2: CD4+/CAR+ and CD8+/CAR+ T cells after antigen stimulation
Protocol: The production of cytokines by the anti-CD19 CAR T cells, expressing CARs containing either the native junction region or the various modified junction regions, was assessed. Engineered T cells were co-cultured with irradiated CD19-transduced K562 target cells (K562-CD19) or parental K562 cells not expressing the CD19 antigen in the presence of Golgi inhibitor. After stimulation, the cells were then fixed, permeabilized and intracellular IL-2 and IFN-γ cytokine levels were assessed by flow cytometry in CD4+/CAR+ cells and CD8+/CAR+ cells

Molecule: CC[C@H](C)[C@H](NC(=O)[C@H](Cc1ccccc1)NC(=O)[C@H](C)N)C(=O)N[C@H](C(=O)N[C@@H](Cc1ccccc1)C(=O)N[C@@H](Cc1c[nH]c2ccccc12)C(=O)N[C@H](C(=O)N[C@@H](CCCCN)C(=O)N[C@@H](CCCNC(=N)N)C(=O)NCC(=O)N[C@@H](CCCNC(=N)N)C(=O)N[C@@H](CCCCN)C(=O)N[C@@H](CCCCN)C(=O)N[C@@H](CC(C)C)C(=O)N[C@@H](CC(C)C)C(=O)O)C(C)C)[C@@H](C)CC (H-AFIIFWVKRGRKKLL-OH; N-terminus and C-terminus assumed)
specific immune response (ELISpot) [1]: specific immune responses also were detected

Molecule: CC[C@H](C)[C@H](NC(=O)[C@H](Cc1ccc(O)cc1)NC(=O)[C@H](CC(C)C)NC(=O)[C@H](CC(C)C)NC(=O)[C@H](CCCCN)NC(=O)[C@H](CCCCN)NC(=O)[C@H](CCCNC(=N)N)NC(=O)CNC(=O)[C@H](CCCNC(=N)N)NC(=O)[C@H](CCCCN)NC(=O)[C@@H](NC(=O)[C@H](Cc1c[nH]c2ccccc12)NC(=O)[C@@H](N)Cc1ccccc1)C(C)C)C(=O)N[C@@H](Cc1ccccc1)C(=O)N[C@@H](CCCCN)C(=O)O (H-FWVKRGRKKLLYIFK-OH; N-terminus and C-terminus assumed)
specific immune response (ELISpot) [1]: specific immune responses also were detected

A*02:01 In Vitro Score (HLA-A*02:01): 4.30
A*03:01 In Vitro (HLA-A*03:01): 1.50
B*08:01 In Vitro Score (HLA-B*08:01): 32.00
A*11:01 In Vitro Score (HLA-A*11:01): 10.70
Molecule: WVQRGNKKL [9-mer variant junction peptide, K28Q/R31N]

A*02:01 In Vitro Score (HLA-A*02:01): 8.10
A*03:01 In Vitro (HLA-A*03:01): 4.90
B*08:01 In Vitro Score (HLA-B*08:01): 45.10
A*11:01 In Vitro Score (HLA-A*11:01): 12.80
Molecule: WVQRGRKKL [9-mer variant junction peptide, K28Q]

B1: R31H: variant anti-CD19 CAR / junction region with R31H, numbering SEQ ID NO:5 (protein)
chain: FWVLVVVGGVLACYSLLVTVAFIIFWVKRGHKKLLYIFKQPFMRPVQTTQEEDGCSCRFPEEEEGGCEL
modifications: CD28-4-1BB
predicted or actual binding affinity or score for HLA class I (HLA-A*02:01): reduced predicted or actual binding affinity or score
percentage of cells with IFN-γ cytokine expression [2]: increased IFN-γ cytokine expression

B2: L34A: variant anti-CD19 CAR / junction region with L34A, numbering SEQ ID NO:5 (protein)
chain: B1 chain with H31R, L34A
modifications: CD28-4-1BB
predicted or actual binding affinity or score for HLA class I (HLA-A*02:01): reduced predicted or actual binding affinity or score
percentage of cells with intracellular expression of IL-2 [2]: greater percentage
percentage of cells with IFN-γ cytokine expression [2]: increased IFN-γ cytokine expression

B3: L34S: variant anti-CD19 CAR / junction region with L34S, numbering SEQ ID NO:5 (protein)
chain: B1 chain with H31R, L34S
modifications: CD28-4-1BB
predicted or actual binding affinity or score for HLA class I (HLA-A*02:01): reduced predicted or actual binding affinity or score
percentage of cells with intracellular expression of IL-2 [2]: greater percentage
